Data: BindingDB's records for doi:10.1021/bi300955k (Dalhousie University, 2012)

Experiments:
Acetylcholinesterase = Acetylcholinesterase (Homo sapiens, UniProt P22303); assay: Inhibition Assay
Source text: (§1) Inhibition constant using AChE or BuChE.

Cholinesterase = Cholinesterase (Homo sapiens, UniProt P06276); assay: Inhibition Assay
Source text: as §1

Sequence of Cholinesterase (P06276 whole entry): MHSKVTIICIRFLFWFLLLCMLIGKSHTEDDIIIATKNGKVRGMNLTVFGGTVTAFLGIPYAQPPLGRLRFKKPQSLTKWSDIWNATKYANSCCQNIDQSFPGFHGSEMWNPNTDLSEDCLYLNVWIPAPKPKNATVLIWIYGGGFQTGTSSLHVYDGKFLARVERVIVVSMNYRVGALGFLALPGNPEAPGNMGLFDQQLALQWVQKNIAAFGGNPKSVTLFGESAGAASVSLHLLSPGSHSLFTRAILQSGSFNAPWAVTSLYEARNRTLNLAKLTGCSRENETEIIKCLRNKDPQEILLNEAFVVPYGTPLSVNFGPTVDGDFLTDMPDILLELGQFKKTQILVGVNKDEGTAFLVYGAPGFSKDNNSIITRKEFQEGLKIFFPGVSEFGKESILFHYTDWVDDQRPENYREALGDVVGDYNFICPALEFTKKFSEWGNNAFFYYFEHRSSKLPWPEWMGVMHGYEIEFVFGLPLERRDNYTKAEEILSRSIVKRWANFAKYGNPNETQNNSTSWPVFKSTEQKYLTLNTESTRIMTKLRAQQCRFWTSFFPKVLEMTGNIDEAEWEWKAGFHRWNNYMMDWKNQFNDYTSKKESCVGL
Sequence of Acetylcholinesterase (P22303 whole entry): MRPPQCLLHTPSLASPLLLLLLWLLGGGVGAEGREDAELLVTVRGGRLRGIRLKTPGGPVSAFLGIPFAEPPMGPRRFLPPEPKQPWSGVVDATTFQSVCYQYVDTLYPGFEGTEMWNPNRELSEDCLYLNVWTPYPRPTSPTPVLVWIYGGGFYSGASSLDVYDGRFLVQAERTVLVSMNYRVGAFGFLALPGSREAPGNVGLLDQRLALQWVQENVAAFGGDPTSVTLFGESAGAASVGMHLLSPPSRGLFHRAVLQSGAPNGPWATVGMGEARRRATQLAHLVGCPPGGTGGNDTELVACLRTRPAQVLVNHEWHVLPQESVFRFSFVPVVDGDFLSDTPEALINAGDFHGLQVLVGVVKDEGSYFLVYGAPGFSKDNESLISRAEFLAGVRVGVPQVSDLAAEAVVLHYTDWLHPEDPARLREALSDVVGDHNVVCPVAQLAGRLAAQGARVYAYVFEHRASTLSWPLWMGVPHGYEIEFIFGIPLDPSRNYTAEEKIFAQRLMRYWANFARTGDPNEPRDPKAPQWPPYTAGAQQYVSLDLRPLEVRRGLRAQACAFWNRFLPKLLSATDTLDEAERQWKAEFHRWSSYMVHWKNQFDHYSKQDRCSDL

## CC(C)N(CCNC(=O)N1c2ccccc2Sc2ccccc21)C(C)C
Acetylcholinesterase
  Ki: 1640 nM
Cholinesterase
  Ki: 21 nM

## O=C(c1c2ccccc2cc2ccccc12)N1c2ccccc2Sc2ccccc21 [Anthracen-9-yl (10H-phenothiazine-10yl) methanone, 5]
Cholinesterase
  Ki: 16 nM

## CC[N+](C)(C)c1cccc(O)c1 [Edrophonium Chloride, 3]
Cholinesterase
  Ki: 198000 nM

## Cc1ccc2c(c1)sc(-c1ccc(N(C)C)cc1)[n+]2C [Thioflavin T, 1]
Acetylcholinesterase
  Ki: 4990 nM
Cholinesterase
  Ki: 3620 nM
